Measured values taken from patent US8569247B2 (priority 2009, dated 2013).
Where two headings read alike, the source gives them in different places.

What was measured:
CaCo-2 cells [1] = experiment: Cellular uptake of crocin and crocetin in CaCo-2 cells (cellular content); type: in vitro ADME; settings: for HPLC peaks in the cells: 10 mg Gardenia extract/100 mL medium; for Crocetin (HPLC) concentration in the cells: 10 mg crocetin/100 mL medium
Procedure: (§1) CaCo-2 cells were incubated with 10 mg Gardenia extract and 10 mg crocetin/100 mL medium. The test compounds were dissolved in methanol and then diluted with incubation medium. Incubations were performed at 37° C. for 30, 60 and 120 minutes.
Cells were grown in 75 cm^2 culture-flasks (T75) and sub-cultured after one week (every other day washed with PBS buffer, removed with trypsin and transferred to a new culture flask).
The cells were washed with PBS buffer, incubated with 4 ml medium containing the suspended samples for 30, 60 or 120 minutes.
After the corresponding incubation time, the cells were washed with PBS buffer/MeOH=70/30 and removed using 1 ml of MeOH. Cells were sonicated 3 times for 30 seconds, centrifuged for 10 min and the pellets were discarded. The supernatant was used as sample for HPLC and UV/VIS-analysis.
(§2) An appropriate amount of standard was transferred into a 10 mL flask and dissolved in 3 mL methanol and filled to the mark with water. Dilutions were prepared in mobile phase.
(§3) Quantification was performed by external standardization after linear regression analysis.

[2] = Content of test solution before and after incubation (stability under CaCo-2 test conditions); type: in vitro ADME; settings: for Area-% Fingerprint of test solution after 120 minutes / Area-% Fingerprint of test solution prior to incubation: Gardenia extract test solution
Procedure: as §1
The content of crocetin related esters and crocetin in the sample used for incubation testing was determined.
Table 7 provides the content of test solution prior to incubation:
Table 8 provides the corresponding data for the test solution obtained after 120 minutes.
as §2, §3

CaCo-2 cells [3] = experiment: CaCo-2 uptake trial extended with gardenia hydrolysate (%-uptake by HPLC/UV peak areas); type: in vitro ADME; settings: sample 20 mg/100 ml; proportion on overall absorption
Procedure: The tests were performed in replicate and the results are expressed as %-uptake based on peak areas measured by HPLC/UV.

[4] = biological target: human acetylcholinesterase (Homo sapiens, UniProt P22303); experiment: biochemical; type: biochemical; settings: for inhibition at 500 µg/mL: read-out: Inhibition of AChE activity %; for activity at 500 µg/mL: read-out: AChE activity %
Procedure: Inhibitor solution: 10 mg of the corresponding samples were respectively dissolved in 1 ml methanol.
Chromogen solution: 0.1 M Sodium phosphate buffer (pH=8, NaOH) was mixed with solution A at a ratio of 30:1.
Solution A: 39.6 mg 5,5′-dithio-bis[2-nitrobenzoic acid] and 15.0 mg NaHCO3 were weighed into a 10 ml flask and filled to the mark with 0.1 M Sodium-phosphate buffer (pH=7, NaOH).
Enzyme solution: A solution of human acetylcholinesterase containing 70 IU enzyme activity/ml H2O was prepared.
Substrate solution: 115.7 mg acetylthiocholine-iodide was weighed into a 10 ml flask and filled to the mark with H2O.
10 μl inhibitor solution was mixed with 185 μl chromogen solution and 10 μl enzyme solution. The solution was incubated for 10 minutes at room temperature with shaking. […] substrate solution was added and the increase in absorption at 412 nm was recorded until no more increase was observed (3-5 minutes).

[5] = stated as known property; cited from earlier work
[6] = Solubility in water / aqueous alkaline solution; type: physicochemical; settings: found by the applicant
[7] = after 120 minutes incubation at 37° C.
[8] = sample 0.50 mg/ml, Neg Control = 0.0
[9] = sample 0.50 mg/ml, Neg Control = 100.0

Chain of human acetylcholinesterase (P22303 32-614): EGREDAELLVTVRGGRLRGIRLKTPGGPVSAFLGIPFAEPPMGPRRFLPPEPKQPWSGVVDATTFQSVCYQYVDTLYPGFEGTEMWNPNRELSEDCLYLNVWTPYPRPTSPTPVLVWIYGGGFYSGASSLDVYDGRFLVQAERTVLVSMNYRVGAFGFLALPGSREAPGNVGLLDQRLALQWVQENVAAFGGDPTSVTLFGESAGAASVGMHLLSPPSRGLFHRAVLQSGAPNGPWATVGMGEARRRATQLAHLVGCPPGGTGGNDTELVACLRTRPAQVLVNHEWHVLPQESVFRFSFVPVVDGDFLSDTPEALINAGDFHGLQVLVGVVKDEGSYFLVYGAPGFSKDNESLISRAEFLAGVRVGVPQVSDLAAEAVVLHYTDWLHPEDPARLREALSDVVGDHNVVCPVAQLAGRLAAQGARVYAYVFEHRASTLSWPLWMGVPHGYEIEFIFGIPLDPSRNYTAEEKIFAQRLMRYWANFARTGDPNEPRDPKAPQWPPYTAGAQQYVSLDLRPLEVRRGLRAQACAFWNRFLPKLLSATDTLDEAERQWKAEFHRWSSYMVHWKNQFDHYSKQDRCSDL

Molecule | HPLC peaks in the cells (CaCo-2 cells [1]; time 0 min) | HPLC peaks in the cells (CaCo-2 cells [1]; time 30 min) | HPLC peaks in the cells (CaCo-2 cells [1]; time 60 min) | HPLC peaks in the cells (CaCo-2 cells [1]; time 120 min) | Area-% Fingerprint of test solution after 120 minutes [2, 7] | Area-% Fingerprint of test solution prior to incubation ([2]; prior to incubation) | other results
CC(=C/C=C/C=C(C)/C=C/C=C(/C)C(=O)O[C@@H]1O[C@H](CO[C@@H]2O[C@H](CO)[C@@H](O)[C@H](O)[C@H]2O)[C@@H](O)[C@H](O)[C@H]1O)/C=C/C=C(\C)C(=O)O[C@@H]1O[C@H](CO[C@@H]2O[C@H](CO)[C@@H](O)[C@H](O)[C@H]2O)[C@@H](O)[C@H](O)[C@H]1O (relative stereo) [DGCC, digentobiosyl-(cis)crocetin] | not detected | not detected | not detected | not detected | 15.2 Area-% | 16.6 Area-% | –
CC(/C=C/C=C(\C)C(=O)O[C@@H]1O[C@H](CO[C@@H]2O[C@H](CO)[C@@H](O)[C@H](O)[C@H]2O)[C@@H](O)[C@H](O)[C@H]1O)=C\C=C\C=C(C)\C=C\C=C(/C)C(=O)O[C@@H]1O[C@H](CO[C@@H]2O[C@H](CO)[C@@H](O)[C@H](O)[C@H]2O)[C@@H](O)[C@H](O)[C@H]1O (relative stereo) [DGTC, digentobiosyl-(trans)crocetin] | not detected | not detected | not detected | not detected | 43.4 Area-% | 45.3 Area-% | –
CC(/C=C/C=C(\C)C(=O)O)=C\C=C\C=C(C)\C=C\C=C(/C)C(=O)O[C@@H]1O[C@H](CO[C@@H]2O[C@H](CO)[C@@H](O)[C@H](O)[C@H]2O)[C@@H](O)[C@H](O)[C@H]1O (relative stereo) [GTC, gentobisyl-(trans)crocetin] | not detected | not detected | not detected | not detected | 10.3 Area-% | 9.7 Area-% | –
CC(/C=C/C=C(\C)C(=O)O)=C\C=C\C=C(C)\C=C\C=C(/C)C(=O)O [Crocetin, 8,8′-Diapo-ψ,ψ-carotenedioic acid, reference compound] | – | – | – | – | – | – | Crocetin (HPLC) concentration in the cells (CaCo-2 cells [1]; time 0 min): BLD (BLD = <0.01 mg/100 ml); Crocetin (HPLC) concentration in the cells (CaCo-2 cells [1]; time 30 min): BLD (BLD = <0.01 mg/100 ml); Crocetin (HPLC) concentration in the cells (CaCo-2 cells [1]; time 60 min): BLD (BLD = <0.01 mg/100 ml); Crocetin (HPLC) concentration in the cells (CaCo-2 cells [1]; time 120 min): BLD (BLD = <0.01 mg/100 ml); content of test solution after 120 minutes [2, 7]: 9.77 mg/100 ml; content of test solution prior to incubation ([2]; prior to incubation, incubation medium): 9.82 mg/100 ml; % uptake of crocetin (CaCo-2 cells [3]): 0.53%; inhibition at 500 µg/mL [4, 8]: 7.5%; activity at 500 µg/mL [4, 9]: 92.5%; solubility in aqueous alkaline solution [5]: soluble; solubility in water [5]: insoluble in water
CC(/C=C/C=C(\C)C(=O)O[C@@H]1O[C@H](CO[C@@H]2O[C@H](CO)[C@@H](O)[C@H](O)[C@H]2O)[C@@H](O)[C@H](O)[C@H]1O)=C\C=C\C=C(C)\C=C\C=C(/C)C(=O)O[C@@H]1O[C@H](CO[C@@H]2O[C@H](CO)[C@@H](O)[C@H](O)[C@H]2O)[C@@H](O)[C@H](O)[C@H]1O [Crocin, di-gentiobiose ester of crocetin] | – | – | – | – | – | – | activity at 500 µg/mL [4]: 52.7%; inhibition at 500 µg/mL [4]: 47.3%; solubility in water [5]: very good water-solubility
CCOC(=O)CCC(=O)O [Monoester] | – | – | – | – | – | – | solubility in water [6]: good solubility in water; Inhibition of AChE activity % [4, 8]: 89.2%; AChE activity % [4, 9]: 10.8%
neapolitanosyl-glucosyl-(trans)crocetin [NGTC] | not detected | not detected | not detected | not detected | 17.9 Area-% | 18.1 Area-% | –
